The source of these data is paper PMC9697519, “New Theonellapeptolides from Indonesian Marine Sponge Theonella swinhoei as Anti-Austerity Agents” (Marine Drugs, 2022).

The structures appear in SMILES notation. Like-named read-outs stand apart in the source and are kept apart here. Where a SMILES comes first, the peptide text is derived from it. Bridges are numbered along the chain shown (N, C = ends). [ ]: non-standard residue; d: D form. The star is where a group is joined. dNMeaIle = CC[C@H](C)[C@@H](NC)C(=O)O; d(aIle) = CC[C@H](C)[C@@H](N)C(=O)O; NMeI = CC[C@H](C)[C@H](NC)C(=O)O; dNMeL = CN[C@H](CC(C)C)C(=O)O; NMeV = CN[C@H](C(=O)O)C(C)C; Methoxyacetyl = COCC(=O)*; βAla = NCCC(=O)O Bounds are passed on as bounds.

The subject of one assay is Escherichia coli JW5503. To be noted: JW5503, 22 h. The procedure:
(§1) Previously, three theonellapeptolide members capped with a unique acyl group at their N-termini such as methylsulfinylacetyl, methylsulfanylacetyl, and acetyl were isolated by Tsuda et al. from Okinawan marine sponge Theonella sp.. Furthermore, the antibacterial activity of these variants was evaluated against four bacterial and six fungal strains. […] To the best of our knowledge, there is no report on the antibacterial activity of theonellapeptolides with methoxyacetyl group. This encouraged us to investigate the antibacterial activity of 1–6 against the Gram-negative bacterium Escherichia coli JW5503 and the Gram-positive bacteria Bacillus cereus NBRC 15305 and Kocuria rhizophila NBRC 12708.
(§2) After incubation for 22 h (30 °C), the obtained optical density was recorded using Tecan infinite® M200 plate reader at 600 nm to determine percent growth inhibition.

Assay [1] deals with Bacillus cereus NBRC 15305. To be noted: NBRC 15305, 22 h. The procedure:
as §1, §2

In assay [2] the test system is Kocuria rhizophila NBRC 12708. The conditions noted are these: NBRC 12708, 22 h. The procedure: as §1, §2
Assay [3] deals with human pancreatic cancer cell line MIA PaCa-2. The conditions noted are these: 24 h. As for the experimental part: Data are presented as preferential cytotoxicity (PC50) values, which represent the concentration that kills 50% of cancer cells in a nutrient-deprived medium (NDM) without any toxicity in a nutrient-rich medium DMEM (Dulbecco’s Modified Eagle Medium).
(§3) Briefly, MIA PaCa-2, HepG2 and MCF-7 Cells (2 × 10^4 cells/well) were seeded in 96-well plates and incubated in fresh DMEM. The cells were washed with Dulbecco’s phosphate-buffered saline (PBS) before the medium was replaced with DMEM or NDM containing serial dilutions of the test samples. After 24 h of incubation, the cells were washed with PBS, and 100 μL of DMEM containing 10% WST-8 cell counting kit solution was added to each well. After 3 h of incubation, the absorbance was measured at 450 nm. Cell viability was calculated from the mean values for three wells. The preferential cytotoxicity was expressed as the concentration at which 50% of cells died preferentially in NDM (PC50).
Pancreatic cancer cells (MIA PaCa-2 cells) were kindly provided by Dr. Suresh Awale, an Associate Professor at Institute of Natural Medicine, University Toyama, Toyama, Japan. MIA PaCa-2 (RBRC-RCB2094), human pancreatic cancer cell lines were purchased from Riken BRC cell bank.

The subject of the next assay is MIA PaCa-2 cells. As to the kind of experiment: Morphological analysis, EB/AO double-staining. In kind it is cell-based, human. The conditions noted are these: 5 and 10 μM, NDM, 24 h, 24-well plate. The procedure: Thus, more detailed studies were performed on the major compound theonellapeptolide IId (4). Its effect on morphology status of MIA PaCa-2 cells under starvation condition was studied using a double-staining assay with EB (ethidium bromide) and AO (acridine orange). The membranes of dead or dying cells are penetrated by EB and staining in red while living cells are stained by AO, a cell-membrane-permeable dye emitting bright green fluorescence. Both AO and EB stains are known as DNA-intercalating agents. During cell death, EB and AO enter into the cell after the integrity of the cell membrane is disrupted, which facilitates the emission of orange fluorescence. […] In Figure 6A, treatment with 4 led to a dose-dependent increase in EB-stained cells emitting red fluorescence and showing drastic alteration of cell morphology. […] Real-time anti-austerity potential tracking of 4 showing morphological changes in MIA PaCa-2 cells under NDM was monitored using a Nikon sCMOS camera oxford instrument, Hamamatsu Photonics/Ti-E, for 24 h. […]
Figure 6 (A) Morphological changes of MIA PaCa-2 cells induced by 4 in a nutrient-deprived medium (NDM). […] The cells were stained with ethidium bromide (EB) and acridine orange (AO), and photographed in the fluorescence (red and green) under phase contrast modes using a Nikon sCMOS camera oxford instrument, Hamamatsu Photonics/Ti-E. (B) Structure of bioactive compound 4. […]

Assay [4] deals with HepG2 (human liver cancer cells). The conditions noted are these: 24 h. The procedure:
(§4) Finally, the anti-austerity activity on two other different cancer cell lines was studied. Preferential cytotoxicity was assessed in a nutrient-deprived medium. Esumi et al. hypothesized that tolerance to nutrient deprivation as well as angiogenesis might be an important factor in tumor progression under hypovascular condition.
as §3

Assay [5] concerns MCF-7 (human breast cancer cells). The conditions noted are these: 24 h. As for the experimental part: as §4, §3

`CC[C@H](C)[C@H]1C(=O)NCCC(=O)N[C@H]([C@@H](C)CC)C(=O)N(C)[C@@H](C(C)C)C(=O)N[C@@H](C)C(=O)NCCC(=O)N[C@H](CC(C)C)C(=O)N(C)[C@H]([C@@H](C)CC)C(=O)O[C@H](C)[C@H](NC(=O)[C@@H](CC(C)C)N(C)C(=O)[C@@H](NC(=O)COC)C(C)C)C(=O)NCCC(=O)N[C@H](CC(C)C)C(=O)N1C` [Compound 4, theonellapeptolide IId] (Methoxyacetyl-V[dNMeL]T[βAla][dL][NMeI][βAla][d(aIle)][NMeV]A[βAla][dL][dNMeaIle]; ester 3-C): in the assay on Escherichia coli JW5503, the “MIC, EC” value is more than 66 µM. Further, the “MIC, BC” value in assay [1] is listed as more than 66 µM. Besides, the “MIC, KR” value in assay [2] is more than 66 µM. For the same compound, the IC50 was 38.2 µM in assay [3] (read-out: IC50 in DMEM, MIA PaCa-2, nutrient-rich DMEM, WST-8, absorbance 450 nm, mean of three wells); 7.8 µM in assay [3] (read-out: PC50 in NDM, MIA PaCa-2, preferential cytotoxicity, nutrient-deprived medium (NDM), WST-8, mean of three wells); more than 100 µM in assay [4] (read-out: IC50 in DMEM, HepG2, nutrient-rich DMEM, WST-8, absorbance 450 nm, mean of three wells); more than 100 µM in assay [4] (read-out: PC50 in NDM, HepG2, preferential cytotoxicity, nutrient-deprived medium (NDM), WST-8, mean of three wells); more than 100 µM in assay [5] (read-out: IC50 in DMEM, MCF7, nutrient-rich DMEM, WST-8, absorbance 450 nm, mean of three wells); more than 100 µM in assay [5] (read-out: PC50 in NDM, MCF7, preferential cytotoxicity, nutrient-deprived medium (NDM), WST-8, mean of three wells). The “EB/AO staining of cells” value with MIA PaCa-2 cells was “exclusive red EB”.
